In the test the test system is 2F5 mAb. Put plainly: SPR assay with liposome-anchored peptides. It is filed as binding. The note with it: 10 seconds after the injection was stopped; peptide anchored to liposomes. In general terms: SPR reads the build-up and loss of mass on a sensor chip optically.

Take “QQEKNEQELLELDKWASSWNYKRWIILGLNKIVRMYS-biotin”: the “binding response (background subtracted)” value is 616.7 response unit.
As for “QQEKNEQELLELDKWASLWNYKRWIILGLNKIVRMYS-biotin [consensus 2F5 epitope]”, the “binding response (background subtracted)” value was determined as 494.6 response unit.

Values taken from US9402917B2, “Methods for the induction of broadly anti-HIV-1 neutralizing antibody responses employing liposome-MPER peptide compositions” (priority 2009, dated 2016).
